Reference: patent US7713923B2, “Self-assembling peptides incorporating modifications and methods of use thereof” (Massachusetts Institute of Technology, priority 2003, dated 2010)

Legend:
[1] = Circular dichroism (secondary structure); assay type: physicochemical; settings: 25 μM peptide in water, room temperature, 195-250 nm
Description: Circular dichroism (DC). CD spectra were gathered on an Aviv model 202 spectropolarimeter. Samples were prepared by diluting stock peptide solutions in water (0.5%) to a working concentration of 25 μM. Samples were analysed at room temperature in a quartz cuvette with a path length of 0.3 cm and in the wavelength range 195-250 nm.
Circular dichroism. CD spectra were obtained for each peptide sequence to assess its secondary structure. The secondary structure identifies ordered structures within a polypeptide such as α-helices and β-sheets. […] (Havel, 1996).

[2] = test system: human aortic endothelial cells (HAEC); assay: HAEC monolayer formation on peptide scaffolds; assay type: cell-based; parameters: key to HAEC monolayer formation, peptide content 100% / HAEC monolayer formation, Blending (9:1): +: Score for optimal monolayer formation and cell survival; −: Score for poor or none monolayer formation and cell survival; settings: for HAEC monolayer formation, Blending (9:1): RAD16-I: peptide sequence at a ratio 9:1 (v/v); for HAEC monolayer formation, peptide content 100%: scaffold of 100% peptide, 0.5% (w/v); for HAEC monolayer formation, peptide blends: 9:1 RAD16-I:modified peptide, seeded subconfluent (~30%)
Description: Endothelial cell culture system. Peptide scaffolds (0.5% w/v) were prepared at 100% peptide sequence for RAD16-I or blended with RAD16-I at a radio of 9:1 (RAD16-I: peptide sequence, on a volume/volume basis) for the three other cases (YIG, RYV, and TAG). Each solution was filtered (0.2 μm, Acrodysc filters, 4192, PALL, MI), loaded (30 μl) on top of a cell culture chamber insert (10 mm diameter, 136935, Nalge Nunc International, IL), and allowed to form a layer (average thickness=600 μm). Phosphate Buffer Saline (PBS) (600 μl) was added at the bottom of the well to induce hydrogel formation, and the system was incubated at room temperature for 30 min. PBS was replaced with culture medium, which was then replaced with fresh medium. The scaffolds were incubated for 1 hour with endothelial cell growth media (EGM-2, Cambrex, MD) in a cell culture incubator at 37° C. with 5% CO2.
(§1) Meanwhile, human aortic endothelial cells (HAEC) (CC-2535, Cambrex, MD) that had been maintained under standard culture conditions (passage 5-6) were harvested at 80% confluence using trypsin and loaded on top of the preformed peptide scaffolds at a cell density of 8×10^4 cells/cm^2 and cultured in the cell culture incubator at 37° C. with 5% CO2. Cell attachment assays were performed one hour after the initial cell loading. To perform the assays, the covering media was removed, and unattached cells were counted on a hematocytometer. Cell counting was performed by mechanically disrupting the scaffold containing cells by pipetting up and down and then counting cells on a hematocytometer after performing Trypan blue (T 9906, Sigma, MO) exclusion assay staining to assess cell viability. In some experiments, for comparison, EC were cultured on inserts coated with Matrigel or collagen (1.5 mg/ml, i.e. 0.15%) according to standard protocols.
In a first experiment, we tested the ability of HAEC to attach and form a monolayer when seeded on various peptide scaffolds generated by self-assembly of the peptides following addition of PBS to a 0.5%(w/v) solution of the peptide in water. […] HAEC cultured in the presence of scaffolds generated from peptides incorporating the other biologically active peptide motifs either died or formed isolated clusters (FIGS. 9A-9G).
We therefore decided to blend the peptides incorporating biologically active motifs with the prototypic RAD16-I sequence in order to reduce the overall concentration of the biologically active motif presented to cells. We selected a volume/volume ratio of 9:1 (RAD16-I:modified peptide sequence comprising biologically active peptide motif, where peptides were dissolved at equal concentrations on a w/w basis) and generated peptide scaffolds from solutions in which the unmodified and modified peptides were present in this ratio.

[3] = test system: human aortic endothelial cells (HAEC); assay: NO release determination (Griess method); assay type: cell-based; settings: nitrite in culture supernatant; RAD16-I 100%, others 9:1 blend
Description: NO release determination. Nitric oxide (NO) release was estimated by measuring nitrites (NOx) by the Griess method. Briefly, the media was replaced after the third day of culture by new media without fetal bovine serum (FBS) or ascorbic acid. The next day, the media was used to analyze NO release using a commercially available kit (482702, Calbiochem, CA) following the manufacturer instructions. Each condition was tested in triplicate.

[4] = test system: human aortic endothelial cells (HAEC); assay: HAEC attachment assay on peptide scaffolds; assay type: cell-based; settings: after one hour; modified peptides as 9:1 blends with RAD16-I
Description: as §1

chondrocytes = settings: encapsulated cells; cited from earlier work
[5] = test system: PC12 cells, endothelial cells, heparin; settings: cited from earlier work

| Compound | Secondary structure (CD) [1] | HAEC monolayer formation, Blending (9:1) [2] | HAEC monolayer formation, peptide content 100% [2] | nitric oxide (NO) release by HAEC [3] | HAEC attachment to the surface [4] [%] | HAEC monolayer formation, scaffold of 100% peptide ([2]; 0.5% (w/v) peptide, no blending) | HAEC monolayer formation, peptide blends [2] | chondrocyte phenotype in hydrogel (chondrocytes) | Biological activity [5] |
| --- | --- | --- | --- | --- | --- | --- | --- | --- | --- |
| CC(=O)N1CCC[C@H]1C(=O)N[C@@H](CC(=O)O)C(=O)N[C@@H](CO)C(=O)NCC(=O)N[C@@H](CCCNC(=N)N)C(=O)NCC(=O)NCC(=O)N[C@@H](CCCNC(=N)N)C(=O)N[C@@H](C)C(=O)N[C@@H](CC(=O)O)C(=O)N[C@@H](C)C(=O)N[C@@H](CCCNC(=N)N)C(=O)N[C@@H](C)C(=O)N[C@@H](CC(=O)O)C(=O)N[C@@H](C)C(=O)N[C@@H](CCCNC(=N)N)C(=O)N[C@@H](C)C(=O)N[C@@H](CC(=O)O)C(=O)N[C@@H](C)C(=O)N[C@@H](CCCNC(=N)N)C(=O)N[C@@H](C)C(=O)N[C@@H](CC(=O)O)C(=O)N[C@@H](C)C(N)=O [PDS, AcN-PDSGR-GG-(RADA)4-CONH2] | β-sheet | − | − |  |  |  |  |  |  |
| CC[C@H](C)[C@H](NC(=O)[C@H](Cc1ccc(O)cc1)NC(C)=O)C(=O)NCC(=O)N[C@@H](CO)C(=O)N[C@@H](CCCNC(=N)N)C(=O)NCC(=O)NCC(=O)N[C@@H](CCCNC(=N)N)C(=O)N[C@@H](C)C(=O)N[C@@H](CC(=O)O)C(=O)N[C@@H](C)C(=O)N[C@@H](CCCNC(=N)N)C(=O)N[C@@H](C)C(=O)N[C@@H](CC(=O)O)C(=O)N[C@@H](C)C(=O)N[C@@H](CCCNC(=N)N)C(=O)N[C@@H](C)C(=O)N[C@@H](CC(=O)O)C(=O)N[C@@H](C)C(=O)N[C@@H](CCCNC(=N)N)C(=O)N[C@@H](C)C(=O)N[C@@H](CC(=O)O)C(=O)N[C@@H](C)C(N)=O [YIG, AcN-YIGSR-GG-(RADA)4-CONH2] | β-sheet | + | + | promote NO release | ~100 | able to support the formation of a monolayer | readily supported monolayer formation |  |  |
| Ac-KAFDITYVRLKFGGRADARADARADARADA-NH2 [KAF, AcN-KAFDITYVRLKF-GG-(RADA)4-CONH2] | random coil | − | − |  |  |  |  |  |  |
| Ac-RYVVLPRGGRADARADARADARADA-NH2 [RYV, AcN-RYVVLPR-GG-(RADA)4-CONH2] | β-sheet | + | − | inhibits NO release | ~100 |  | readily supported monolayer formation |  |  |
| Ac-TAGSCLRKFSTMGGRADARADARADARADA-NH2 [TAG, AcN-TAGSCLRKFSTM-GG-(RADA)4-CONH2] | β-sheet | + | − | promote NO release | ~100 |  | readily supported monolayer formation |  |  |
| AcN-KLDLKLDLKLDL-CONH2 (Ac-KLDLKLDLKLDL-NH2) [KLD12] |  |  |  |  |  |  |  | retained their morphology and developed a cartilage-like, mechanically functional ECM rich in proteoglycans and type-II collagen |  |
| CSRARKQAASIKVAVSADR |  |  |  |  |  |  |  |  | vessel formation |
| KAFDITYVRLKF |  |  |  |  |  |  |  |  | neurite outgrowth |
| PDGSR |  |  |  |  |  |  |  |  | Cell adhesion |
